Here are results for 41 compounds from ChEMBL document CHEMBL4385598, “A comprehensive review of topoisomerase inhibitors as anticancer agents in the past decade” (Eur J Med Chem, 2019).

One assay has as its system HL-60. Briefly: Antitumor activity against human HL60 cells assessed as reduction in cell viability by MTT assay. Format: functional, cell-based.
A further assay concerns L1210. Kind of assay: Antitumor activity against mouse L1210 cells assessed as reduction in cell viability by MTT assay. Format: functional, cell-based.
In another assay the test system is T47D. Briefly: Cytotoxicity against human T47D cells assessed as reduction in cell growth preincubated for 4 hrs in FBS starvation condition followed by incubation for 2 days by CCK8-based cell counting method. Format: functional.
For assay [1], the system named is HeLa. Kind of assay: Cytotoxicity against human HeLa cells assessed as reduction in cell growth incubated for 48 hrs by SRB assay. The assay is classed as functional, cell-based.
The test system of a further assay is Ca-Ski. Briefly: Cytotoxicity against human CaSki cells assessed as reduction in cell growth incubated for 48 hrs by SRB assay. Format: functional, cell-based.
In assay [2] the test system is HeLa. Kind of assay: Antiproliferative activity against human HeLa cells assessed as reduction in cell growth incubated for 48 hrs by MTT assay. The assay is classed as functional, cell-based.
For a further assay, the system named is K562. Kind of assay: Antiproliferative activity against human K562 cells assessed as reduction in cell growth incubated for 48 hrs by MTT assay. The assay is classed as functional, cell-based. The note with it: K562, 48 h.
The test system of a further assay is K562/A02. Kind of assay: Antiproliferative activity against human K562/A02 cells assessed as reduction in cell growth incubated for 48 hrs by MTT assay. The assay is classed as functional, cell-based. The note with it: K562/A02, 48 h.
For a further assay, the system named is HCT-116. Briefly: Cytotoxicity against human HCT116 cells assessed as reduction in cell growth by WST-1 assay. The assay is classed as functional, cell-based.
The subject of the next assay is A549. Briefly: Cytotoxicity against human A549 cells assessed as reduction in cell viability incubated for 24 hrs by MTT assay. Format: functional, cell-based. As to conditions: A549, 24 h.
The target of assay [3] is T1, DNA topoisomerase I (Bos taurus) (UniProt F1MN93).
T1 sequence (whole entry): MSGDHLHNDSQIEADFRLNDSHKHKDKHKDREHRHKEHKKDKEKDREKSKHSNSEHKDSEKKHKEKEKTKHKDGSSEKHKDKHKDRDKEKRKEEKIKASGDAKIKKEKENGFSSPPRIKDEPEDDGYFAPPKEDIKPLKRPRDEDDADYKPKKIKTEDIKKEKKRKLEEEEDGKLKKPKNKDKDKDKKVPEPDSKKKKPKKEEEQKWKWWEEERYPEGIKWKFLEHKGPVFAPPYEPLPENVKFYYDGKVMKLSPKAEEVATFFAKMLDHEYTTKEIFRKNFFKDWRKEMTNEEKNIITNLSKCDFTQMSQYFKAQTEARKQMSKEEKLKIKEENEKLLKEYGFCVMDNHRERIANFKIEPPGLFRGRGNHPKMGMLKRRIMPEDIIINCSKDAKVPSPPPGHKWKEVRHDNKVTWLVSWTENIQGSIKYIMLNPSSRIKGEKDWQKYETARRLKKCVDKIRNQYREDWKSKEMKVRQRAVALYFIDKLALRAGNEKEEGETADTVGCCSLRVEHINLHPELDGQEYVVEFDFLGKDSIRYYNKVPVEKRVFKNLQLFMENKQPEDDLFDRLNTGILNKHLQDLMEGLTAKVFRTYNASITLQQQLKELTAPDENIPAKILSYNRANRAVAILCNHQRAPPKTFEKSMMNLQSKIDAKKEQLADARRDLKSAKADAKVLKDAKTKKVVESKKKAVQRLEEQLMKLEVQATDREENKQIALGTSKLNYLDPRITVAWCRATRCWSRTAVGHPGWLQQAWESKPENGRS
Kind of assay: Inhibition of calf thymus DNA topoisomerase 1 using supercoiled pBR322 plasmid DNA as substrate at 20 uM after 30 mins by agarose gel electrophoresis method relative to control.

For assay [4], the target named is DNA topoisomerase 2-alpha (Homo sapiens) (UniProt P11388). Briefly: Inhibition of human DNA topoisomerase 2 using supercoiled pBR322 plasmid DNA as substrate at 20 uM after 30 mins by agarose gel electrophoresis method relative to control.
DNA topoisomerase 2-alpha (Homo sapiens), sequence (P11388 whole entry): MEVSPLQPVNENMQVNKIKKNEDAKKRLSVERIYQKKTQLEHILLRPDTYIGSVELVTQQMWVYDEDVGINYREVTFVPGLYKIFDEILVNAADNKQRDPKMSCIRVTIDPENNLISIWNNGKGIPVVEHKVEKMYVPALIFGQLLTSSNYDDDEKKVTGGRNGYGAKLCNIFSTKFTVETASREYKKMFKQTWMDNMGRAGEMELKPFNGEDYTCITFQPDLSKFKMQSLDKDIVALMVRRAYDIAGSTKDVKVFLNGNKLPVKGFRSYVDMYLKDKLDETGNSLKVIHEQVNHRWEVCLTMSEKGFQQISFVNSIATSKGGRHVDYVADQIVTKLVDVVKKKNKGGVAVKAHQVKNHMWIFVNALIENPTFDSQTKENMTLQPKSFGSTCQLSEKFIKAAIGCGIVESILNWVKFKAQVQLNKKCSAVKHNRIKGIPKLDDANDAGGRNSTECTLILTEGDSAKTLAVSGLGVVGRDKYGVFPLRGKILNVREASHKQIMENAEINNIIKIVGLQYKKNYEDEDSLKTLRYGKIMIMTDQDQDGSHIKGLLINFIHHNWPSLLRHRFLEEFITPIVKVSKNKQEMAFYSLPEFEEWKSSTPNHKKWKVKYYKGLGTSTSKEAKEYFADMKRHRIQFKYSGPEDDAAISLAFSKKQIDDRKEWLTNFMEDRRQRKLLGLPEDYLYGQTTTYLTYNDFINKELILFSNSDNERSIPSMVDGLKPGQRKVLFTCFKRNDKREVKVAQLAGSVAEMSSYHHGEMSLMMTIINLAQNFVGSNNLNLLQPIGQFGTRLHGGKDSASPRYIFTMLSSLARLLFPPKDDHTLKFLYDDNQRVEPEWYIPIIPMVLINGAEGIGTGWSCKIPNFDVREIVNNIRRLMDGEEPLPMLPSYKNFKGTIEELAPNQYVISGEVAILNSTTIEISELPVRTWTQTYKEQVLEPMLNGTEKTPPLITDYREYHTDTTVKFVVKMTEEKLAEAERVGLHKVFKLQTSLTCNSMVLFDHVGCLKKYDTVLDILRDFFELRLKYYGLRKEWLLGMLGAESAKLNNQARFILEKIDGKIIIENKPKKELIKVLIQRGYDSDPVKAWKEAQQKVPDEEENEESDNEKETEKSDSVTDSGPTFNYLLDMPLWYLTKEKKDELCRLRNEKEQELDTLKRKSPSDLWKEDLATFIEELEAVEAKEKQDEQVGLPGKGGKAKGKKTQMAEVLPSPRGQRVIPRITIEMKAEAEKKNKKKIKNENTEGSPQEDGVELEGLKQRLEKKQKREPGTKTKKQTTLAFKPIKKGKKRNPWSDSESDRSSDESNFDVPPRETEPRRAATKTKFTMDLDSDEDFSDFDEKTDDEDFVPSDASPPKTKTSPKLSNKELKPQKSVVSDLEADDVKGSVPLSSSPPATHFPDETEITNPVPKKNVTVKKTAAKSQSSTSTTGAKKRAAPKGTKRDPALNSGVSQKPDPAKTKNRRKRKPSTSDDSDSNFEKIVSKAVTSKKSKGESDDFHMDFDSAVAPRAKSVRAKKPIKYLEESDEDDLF

Regarding `O=C(N/N=C/c1ccc2c(c1)OCO2)c1cn(C2CC2)c2cc(N3CCNCC3)c(F)cc2c1=O`, the IC50 with HL-60 and in the assay with L1210 was no more than 25 µM throughout.
As for `Oc1cccc(-c2cc(-c3ccc(Cl)cc3)cc(-c3ccco3)n2)c1`, the IC50 with T47D is 0.68 to 1.25 µM.
On to `COc1cc(CN2CCN(c3ccccc3Cl)CC2)c2cc3[n+](cc2c1OC)CCc1cc2c(cc1-3)OCO2.[Cl-]`, for which the IC50 in the assay with HeLa [1] and in the assay with Ca-Ski was less than 6 µg/mL each time.
Take `O=C(N/N=C/c1ccccc1)c1cn(C2CC2)c2cc(N3CCNCC3)c(F)cc2c1=O`: the IC50 with HL-60 and in the assay with L1210 was no more than 25 µM throughout.
On to `O=C(N/N=C/c1ccc(F)cc1)c1cn(C2CC2)c2cc(N3CCNCC3)c(F)cc2c1=O`, for which the IC50 with HL-60 and in the assay on L1210 was no more than 25 µM each time.
As for `COc1cc([C@@H]2c3cc4c(cc3[C@@H](NC/C=C/c3ccc(CN5CCN(c6ccc([N+](=O)[O-])cc6)CC5)o3)[C@H]3COC(=O)[C@H]23)OCO4)cc(OC)c1OC`, the IC50 with HeLa [2] is 7.93 µM; in the assay on K562, 6.42 µM; in the assay with K562/A02 it was 6.89 µM.
Turning to `COc1cc(CN2CCN(c3ccc(F)cc3)CC2)c2cc3[n+](cc2c1OC)CCc1cc2c(cc1-3)OCO2.[Cl-]`, the half-inhibitory concentration (IC50) in the assay on HeLa [1] and with Ca-Ski was less than 6 µg/mL in each case.
`COc1ccc(/C=N/NC(=O)c2cn(C3CC3)c3cc(N/N=C/c4ccc(OC)c(O)c4)c(F)cc3c2=O)cc1O`: the IC50 with HL-60 and with L1210 was no more than 25 µM throughout.
In the case of `COc1cc(CN2CCN(c3cccc(Cl)c3)CC2)c2cc3[n+](cc2c1OC)CCc1cc2c(cc1-3)OCO2.[Cl-]`, the IC50 with HeLa [1] and in the assay on Ca-Ski was less than 6 µg/mL in each case.
`COc1cc(CN2CCN(c3ccc(Cl)cc3)CC2)c2cc3[n+](cc2c1OC)CCc1cc2c(cc1-3)OCO2.[Cl-]`: the IC50 in the assay on HeLa [1] and in the assay on Ca-Ski was less than 6 µg/mL throughout.
As for `COc1ccc(/C=N/NC(=O)c2cn(C3CC3)c3cc(N4CCNCC4)c(F)cc3c2=O)cc1`, the IC50 with HL-60 and with L1210 was no more than 25 µM throughout.
Take `COc1cc(CN2CCN(c3ccc(C)cc3)CC2)c2cc3[n+](cc2c1OC)CCc1cc2c(cc1-3)OCO2.[Cl-]`: the IC50 in the assay on HeLa [1] and in the assay with Ca-Ski was less than 6 µg/mL each time.
Turning to `Oc1cccc(-c2cc(-c3ccccc3Cl)cc(-c3ccccc3)n2)c1`, the IC50 in the assay on T47D lay in the range of 0.68 to 1.25 µM.
`O=c1c(O)c(-c2cc(O)c(O)c(O)c2)oc2cc(O)cc(O)c12` [MYRICETIN]: the IC50 in the assay with HCT-116 was 28.2 µM.
`Oc1cccc(-c2cc(-c3cccc(Cl)c3)cc(-c3cccs3)n2)c1`: in the assay with T47D, the half-maximal inhibitory concentration (IC50) is 0.68 to 1.25 µM.
Same read-out and setting: to `Oc1cccc(-c2cc(-c3cccc(Cl)c3)cc(-c3ccco3)n2)c1` belongs 0.68 to 1.25 µM; to `Oc1cccc(-c2cc(-c3ccc(Cl)cc3)cc(-c3ccccc3)n2)c1`, 0.68 to 1.25 µM.
As to `COc1cc(CN2CCN(c3ccc([N+](=O)[O-])cc3)CC2)c2cc3[n+](cc2c1OC)CCc1cc2c(cc1-3)OCO2.[Cl-]`, the half-inhibitory concentration (IC50) with HeLa [1] and in the assay on Ca-Ski was less than 6 µg/mL in each case.
In the case of `CCCCCCCCCCCCCCCC(=O)O` [PALMITIC ACID], the IC50 with A549 is 150 µM.
Take `CC[C@@]1(O)C(=O)OCc2c1cc1n(c2=O)Cc2cc3ccccc3nc2-1`: the inhibition in assay [3] turned out to be 51%.
On to `COc1cc(/C=N/NC(=O)c2cn(C3CC3)c3cc(N4CCNCC4)c(F)cc3c2=O)cc(OC)c1OC`, for which the IC50 with HL-60 and in the assay with L1210 was no more than 25 µM throughout.
Regarding `CCCCC[C@H](O)[C@@H](O)/C=C/[C@@H](O)CCCCCCCC(=O)O`, the inhibition came to 97% in assay [4] and 41% in assay [3].
On to `COc1cc(CN2CCN(c3ccc(OC(F)(F)F)cc3)CC2)c2cc3[n+](cc2c1OC)CCc1cc2c(cc1-3)OCO2.[Cl-]`, for which the IC50 in the assay on HeLa [1] and with Ca-Ski was less than 6 µg/mL each time.
For the compound `O=C(N/N=C/c1ccccc1[N+](=O)[O-])c1cn(C2CC2)c2cc(N3CCNCC3)c(F)cc2c1=O`, the IC50 in the assay with HL-60 and in the assay on L1210 was no more than 25 µM in each case.
In the case of `O=C(N/N=C/c1ccccc1O)c1cn(C2CC2)c2cc(N/N=C/c3ccccc3O)c(F)cc2c1=O`, the IC50 in the assay on HL-60 and in the assay with L1210 was no more than 25 µM throughout.
Turning to `COc1ccc(/C=N/NC(=O)c2cn(C3CC3)c3cc(N/N=C/c4ccc(OC)cc4)c(F)cc3c2=O)cc1`, the half-inhibitory concentration (IC50) in the assay with HL-60 and with L1210 was no more than 25 µM throughout.
Take `Oc1cccc(-c2cc(-c3ccccc3Cl)cc(-c3ccsc3)n2)c1`: in the assay on T47D, the IC50 lay within 0.68 to 1.25 µM.
As to `Oc1ccc(-c2cc(-c3ccccc3Cl)cc(-c3ccco3)n2)cc1`, the half-inhibitory concentration (IC50) in the assay on T47D lay within 0.68 to 1.25 µM.
In the case of `O=C(N/N=C/c1ccc2c(c1)OCO2)c1cn(C2CC2)c2cc(N/N=C/c3ccc4c(c3)OCO4)c(F)cc2c1=O`, the IC50 in the assay with HL-60 and with L1210 was no more than 25 µM each time.
On to `O=C(N/N=C/c1ccccc1O)c1cn(C2CC2)c2cc(N3CCNCC3)c(F)cc2c1=O`, for which the IC50 in the assay on HL-60 and with L1210 was no more than 25 µM each time.
Take `O=C(N/N=C/c1ccccc1)c1cn(C2CC2)c2cc(N/N=C/c3ccccc3)c(F)cc2c1=O`: the IC50 in the assay with HL-60 and in the assay on L1210 was no more than 25 µM each time.
For the compound `COc1cc(/C=N/NC(=O)c2cn(C3CC3)c3cc(N/N=C/c4cc(OC)c(OC)c(OC)c4)c(F)cc3c2=O)cc(OC)c1OC`, the IC50 in the assay on HL-60 and in the assay on L1210 was no more than 25 µM in each case.
Regarding `COc1ccc(/C=N/NC(=O)c2cn(C3CC3)c3cc(N4CCNCC4)c(F)cc3c2=O)cc1O`, the half-inhibitory concentration (IC50) in the assay with HL-60 and in the assay with L1210 was no more than 25 µM in each case.
With `COc1cc(CN2CCN(c3ccccc3[N+](=O)[O-])CC2)c2cc3[n+](cc2c1OC)CCc1cc2c(cc1-3)OCO2.[Cl-]`, the 50% inhibitory concentration (IC50) with HeLa [1] and in the assay on Ca-Ski was less than 6 µg/mL throughout.
Take `Oc1cccc(-c2cc(-c3cccc(Cl)c3)cc(-c3ccccc3)n2)c1`: the IC50 in the assay with T47D was in the range of 0.68 to 1.25 µM.
As to `Oc1cccc(-c2cc(-c3ccc(Cl)cc3)cc(-c3ccsc3)n2)c1`, in the assay on T47D, the concentration for half-maximal inhibition (IC50) was in the range of 0.68 to 1.25 µM.
For the compound `O=C(N/N=C/c1ccc(F)cc1)c1cn(C2CC2)c2cc(N/N=C/c3ccc(F)cc3)c(F)cc2c1=O`, the half-inhibitory concentration (IC50) with HL-60 and with L1210 was no more than 25 µM throughout.
For `O=C(N/N=C/c1ccccc1[N+](=O)[O-])c1cn(C2CC2)c2cc(N/N=C/c3ccccc3[N+](=O)[O-])c(F)cc2c1=O`, the concentration for half-maximal inhibition (IC50) with HL-60 and with L1210 was no more than 25 µM each time.
For `COc1cc(CN2CCN(c3ccccc3F)CC2)c2cc3[n+](cc2c1OC)CCc1cc2c(cc1-3)OCO2.[Cl-]`, the 50% inhibitory concentration (IC50) with HeLa [1] and with Ca-Ski was less than 6 µg/mL throughout.
For `Oc1cccc(-c2cc(-c3cccc(Cl)c3)cc(-c3ccsc3)n2)c1`, the half-maximal inhibitory concentration (IC50) in the assay with T47D fell in the range of 0.68 to 1.25 µM.
As for `COc1cc(CN2CCN(c3ccc(C(F)(F)F)cc3)CC2)c2cc3[n+](cc2c1OC)CCc1cc2c(cc1-3)OCO2.[Cl-]`, the half-inhibitory concentration (IC50) in the assay on HeLa [1] and in the assay with Ca-Ski was less than 6 µg/mL each time.
